Tested on: Rhizoctonia solani
Experiment: Soybean seed treatment test in soil contaminated by Rhizoctonia solani (disease control efficacy)
Format: in vivo, Rhizoctonia solani on soybean (variety: Natto shoryu)
Conditions: carboxamide compound alone 0.2 g/100 kg of seeds, no thiodicarb, soybean cultivated 20 days in soil contaminated by Rhizoctonia solani, efficacy vs non-treated plot
Protocol: A cyclohexanone solution (100 microL) containing prescribed amount (weight) of a test compound was applied on seeds of soybean (variety:Natto shoryu) (10 g) by using a rotary apparatus for seed treatment (Seed dresser, manufactured by Hans-Ulrich Hege GmbH).
One day after the application, plastic pot was filled with soil contaminated by Rhizoctonia solani, and the seeds treated with the test compounds were seeded in the soil and cultivated in a glass-greenhouse for 20 days (hereinafter referred to as “treated plot”).
Thereafter, the presence of disease caused by Rhizoctonia solani in the young plants which germinated from each seed was observed and disease severity was calculated according to the following calculation formula (1).
On the other hand, seeds of soybean which were not treated as above were cultivated in the same way as above (hereinafter referred to as “non-treated plot”) and the disease severity in “non-treated plot” was calculated in the same way as the above “treated plot”. On the basis of the above disease severity in “treated plot” and “non-treated plot”, efficacy in “treated plot” was evaluated according to the following calculation formula (2). […]

CC1CC(C)(C)c2cccc(NC(=O)c3cn(C)nc3C(F)F)c21 (stereo not shown) [carboxamide compound (1)]
efficacy (%): 47.4%

From patent US9363998B2, “Pesticidal composition and its use” (SUMITOMO CHEMICAL COMPANY, LIMITED, priority 2010, dated 2016)
